{"source": "patent US20130338092A1", "about": "“COMPOUNDS AND METHODS FOR TARGETING LEUKEMIC STEM CELLS” (The Broad Institute, Inc., priority 2011, published 2013)", "key": {"HSPCs": {"tested_on": "HSPCs", "assay": "Stromal pretreatment of primary MSC stroma, triple coculture, HSPCs", "type": "cell-based, murine", "details": "stroma pretreated three days, LSCs and HSPCs comingled", "protocol": "In the context of primary MSC stroma (uncolored), both HSPCs (from actin-GFP mice (000329, Jackson Lab)) and LSC (dsRed+) populations were comingled together in a ratio of 2:1 within the same 384format wells. As in the stromal pretreatment screen with OP9 stroma, BRD7116 was added for three days to the stroma prior to the addition of the hematopoietic populations. 5 days after compound addition, wells were imaged in the red and green channels and total cells were counted using MetaXpress software from MDC.\nThis experiment was also performed in the context of primary MSC stroma. Both HSPCs and LSC populations were comingled together in the same wells, as a “triple” coculture."}, "normal murine HSPCs": {"tested_on": "normal murine HSPCs", "assay": "Triple coculture (LSCs and HSPCs on primary MSCs), normal HSPCs", "details": "for IC50: Mus musculus, read-out: Normal HSPC* IC50", "method": "As in the original assay approach, treatment of these triple cocultures began one day after hematopoietic cell plating and was assessed 5 days later.\nAn in vitro therapeutic index was determined for each compound, a comparative measure of the potential for anti-LSC efficacy relative to the potential for dose-limiting toxicities to normal HSCs (myeloablation), or to normal progenitors (myelosuppression). Specifically, ratios were created using the IC50s for primary murine HSPCs in triple coculture as the numerator, and the IC50s for primary murine leukemia inhibition in triple coculture as the denominator, toward assessing the potential for HSC harm relative to LSC inhibition."}, "[1]": {"tested_on": "LSC-enriched leukemia cells (MLL-AF9)", "assay": "Leukemia coculture assay on primary MSC stroma (cobblestoning readout)", "type": "cell-based, murine", "details": "for IC50: read-out: Leukemia IC50; for leukemia-selective activity in coculture vs normal HSPCs: primary MSC stroma", "protocol": "Whole bone marrow were harvested from C57/B16 actin-dsRed mice (006051, Jackson Labs), subjected to red blood cell lysis (Qiagen), then granulocyte-macrophage progenitors (GMPs) were isolated by Fluorescence-activated cell sorting (FACsAria, Becton Dickinson). GMPs were spinfected twice (2500 rpm, 90 min, 37 C) in the presence of mIL3 (10 ng/ml, Peprotech), mIL6 (10 ng/ml, Peprotech), and mSCF (10 ng/ml, Peprotech) with pMSCV-MLL-AF9-Neo virus then transplanted into lethally irradiated C57/B16 recipients. After disease onset, the spleens were harvested and transplanted into sublethally irradiated secondary recipients. Subsequent transplantation of bulk spleen cells from leukemic secondary mice was repeated twice to generate leukemic GMPs from quaternary transplant leukemic mouse bone marrow.\nLong bones and hips from moribund leukemic mice were harvested, cleaned, crushed and sequentially passed through 100 and 70 μM filters (Falcon). The cells were RBC lysed (Qiagen) and stained in PBS+2% FBS (Omega). Antibodies included lineage markers CD4, CD8, Gr1, Mac1, IL-7R, and Ter119 (Caltag), c-kit (17-1172-83, eBioscience), Sca-1 (11-5981-82, eBioscience), CD34 (11-0341-85, eBioscience), and CD16/32 (25-0161-82, eBioscience). Hoechst 33258 (H21491, Invitrogen) was also used, to identify live cells. Cells were sorted on a FacsAria II (Becton Dickinson).\nThe humerii, tibiae, ilia, femurs, and spine were isolated from actin-GFP mice (000329, Jackson Lab) crushed using a mortar and pestle, washed in phosphate-buffered saline (PBS) without magnesium and calcium (Gibco) with 0.5% fetal bovine serum (FBS) (HyClone) and filtered through a 70-μm filter. Red blood cell lysis was performed with ammonium-chloride/potassium-chloride (ACK) lysing buffer (Lonza), the cells were resuspended in α-MEM (StemCell Technologies), 20% FBS (HyClone) and 1× Pen-Strep (CellGro), plated in 25 ml in 150-cm^2 tissue-culture flasks (three per mouse), and incubated at 33° C. with 5% CO2. After 2-3 days, the medium was replaced with fresh α-MEM with 20% FBS. After 8-14 days, the cells were rinsed, split by trypsinization (CellGro), pooled, filtered through a 70 μm filter, replated at 3-4 million cells per 150-cm^2 tissue-culture flask, and grown at 33° C. with 5% CO2 for 3-4 days until nearly confluent. The cells were trypsinized, filtered, and resuspended in 0.5% FBS in PBS with biotin-conjugated anti-mouse CD105 antibody (eBioscience) for 15-30 minutes at room temperature. The CD105-labeled cells were incubated with Dynabead M-280 streptavidin-linked magnetic beads (Invitrogen) for 15-30 minutes at 4° C. with agitation and isolated using magnetic separation and rinsed once. The CD105^+ cell fraction was replated at 1-2 million cells per 150-cm^2 tissue-culture flask and incubated at 33° C. with 5% CO2 for 2-3 days.\nThe MSCs were trypsinized, filtered, diluted in phenol-red-free alpha-MEM with 20% FBS, and plated (30 μl for a total of 2000 cells per well) on 384-well clear-bottomed black tissue-culture treated plate (3712, Corning) pretreated with fibronectin (Millipore). Plate covers (VWR) were added, the plates were spun and at 500 with slow braking, and the cells were incubated at room temperature for 60-90 minutes before incubation at 33° C. with 5% CO2 for 3 days prior to hematopoietic cell plating. […]"}, "dsRed+ LSCs": {"tested_on": "dsRed+ LSCs", "assay": "Syngeneic transplantation of compound-treated triple cocultures, leukemia onset / survival", "type": "in vivo, mice", "details": "cocultures treated 48 hours ex vivo, then transplanted; vs DMSO", "protocol": "Heterotypic cocultures containing dsRed+ LSCs, CD45.1+ HSPCs, and GFP+ MSCs were exposed to compounds for 48 hours, then transplanted en masse post trypsinization with untreated wild-type helper splenocytes (CD45.1+CD45.2+) into lethally irradiated, wildtype recipient animals (CD45.2+). Latency of leukemia onset was compared for mice receiving cocultures treated with compound compared to DMSO control treated cocultures. The engraftment of the normal HSPCs treated and injected along with the leukemia cells was quantified by FACs analysis of the bone marrow of mice alive at the 16 week endpoint across treatments.\nAs in vivo readouts may better reflect hematopoietic stem cell function compared to in vitro readouts (Purton, L. E., and Scadden, D. T. (2007). Cell Stem Cell 1, 263-270.; Bock, T. A. (1997). Stem Cells 15 Suppl 1, 185-195.), our results were confirmed using murine transplantation studies. […] Compounds that increase disease latency relative to DMSO control are considered active. […] Bone marrow repopulating ability is a functional measure of normal HSPCs, assessed by quantifying long-term engraftment and differentiation patterns in recipient mice (Bock, T. A. (1997). Stem Cells 15 Suppl 1, 185-195.; Nguyen, L. V., Vanner, R., Dirks, P., and Eaves, C. J. (2012). Nat Rev Cancer 12, 133-143.). […]"}, "[2]": {"tested_on": "primary CD34+ cells from normal human cord blood", "assay": "Human CD34+ CAFC assay, normal cells", "details": "1.25 μM to 10 μM, 18 hours exposure", "method": "Samples were centrifuged over Ficoll-Paque PLUS (GE Heathcare) step gradient (2000×g for 30 min in 50 ml tubes) to obtain mononuclear cells and then CD34^+ cells were selected with immunomagnetic beads (MACS Cell Separation, Miltenyi Biotec, Auburn, Calif.), except in one case, NPM1 mutation, which was CD34^− by flow cytometry and mononuclear cells were used. 50,000 cells were placed into 12.5 cm^2 flasks (Becton Dickinson Labware, Franklin Lakes, N.J.) in co-culture with the MS-5 mouse bone marrow-derived stromal cell line (kindly provided by Dr. Itoh, Dept. of Biology, Niigata University, Japan) and DMSO control and the number of final cobblestones was later read. The number of cells needed to form one cobblestone was then placed in triplicate for each sample with each drug at serial drug dilutions from 10 μM to 0.63 μM as well as with DMSO 0.5% for control purposes and incubated overnight with Iscove's modified Dulbecco's medium (IMDM, in house media preparation laboratory)+20% fetal calf serum (FCS, Atlanta Biologicals, Lawrenceville, Ga.) with glutamine (2 mM/ml, in house media preparation laboratory), monothioglycerol (MTG, 10 nM/ml, Sigma Cell Culture, St. Louis Mo.), c-Kit ligand (20 ng/ml, Amgen, Thousand Oaks, Calif.), Flt ligand (20 ng/ml, Imclone, Bridgewater, N.J.), TPO (20 ng/ml, Amgen) and IL-3 (20 ng/ml, Amgen). […]\nThe cells were treated with compound or DMSO carrier control at four doses (ranging from 1.25 μM to 10 μM) in triplicate for 18 hours, washed thoroughly, then plated onto human stromal MS-5 monolayers (Itoh, K., Tezuka, H., Sakoda, H., Konno, M., Nagata, K., Uchiyama, T., Uchino, H., and Mori, K. J. (1989). Exp Hematol 17, 145-153.) and maintained in coculture with one subsequent half media change. After 5 weeks (2 weeks for the FLT3-ITD sample (Moore, M. A., Dorn, D. C., Schuring a, J. J., Chung, K. Y., and Morrone, G. (2007). Exp Hematol 35, 105-116.)), cobblestone formation was determined, and dose-response curves against the 7 cell types were generated for each compound."}, "[3]": {"details": "Mus musculus, MLL-AF9, LSCs on primary MSC stroma, 8-point dose"}}, "note": "Where two headings read alike, the source gives them in different places."}
{"molecule": "CC1(C)C(C(=O)Nc2ccc(S(=O)(=O)c3ccc(NC(=O)C4C(C)(C)C4(C)C)cc3)cc2)C1(C)C", "note": "[BRD7116]", "values": [{"measurement": "numbers of comingled HSPCs on pretreated MSC stroma", "setting": "HSPCs", "value": "a decrease in the numbers of comingled HSPCs was not observed"}, {"measurement": "IC50", "setting": "normal murine HSPCs", "value": 5000, "unit": "nM"}, {"measurement": "IC50", "setting": "[1]; [3]", "value": 204, "unit": "nM"}, {"measurement": "leukemia-selective activity in coculture vs normal HSPCs", "setting": "[1]", "value": "selective loss of the LSC-enriched leukemia cells"}, {"measurement": "latency of leukemia onset / survival of recipient mice", "setting": "dsRed+ LSCs", "value": "mild, but statistically significant prolonged latency of leukemia onset"}]}
{"molecule": "CCC(C)C(=O)OC1CC(C)C=C2C=CC(C)C(CCC(O)CC(O)CC(=O)O)C21", "note": "(stereo not shown) [Lovastatic acid]", "values": [{"measurement": "normal HSPCs in triple coculture", "setting": "normal murine HSPCs; 200 nM lovastatic acid or 1 μM BRD7116, 5 days", "value": "continued to display healthy, cobblestoned morphologies"}, {"measurement": "IC50", "setting": "normal murine HSPCs", "value": 800, "unit": "nM"}, {"measurement": "IC50", "setting": "[1]; LSCs on primary MSC stroma, 8-point dose", "value": 167, "unit": "nM"}, {"measurement": "IC50", "setting": "[1]; [3]", "value": "< 200", "unit": "nM"}, {"measurement": "IC50", "setting": "[1]; Mus musculus, MLL-AF9, statins (acid form), LSCs cocultured on primary MSC stroma", "value": "< 200", "unit": "nM"}, {"measurement": "leukemia-selective activity in coculture vs normal HSPCs", "setting": "[1]", "value": "leukemia-selective activity"}, {"measurement": "latency of leukemia onset / survival of recipient mice", "setting": "dsRed+ LSCs", "value": "survived substantially longer than the DMSO control group"}, {"measurement": "toxicity against normal primary CD34+ cells (human CAFC)", "setting": "[2]", "value": "neither compound showed toxicity"}]}
